Test systems include SF-295 CNS; PC-3 prostate; TK-10 renal; MCF7 breast; UO-31 renal; HS 578T breast; OVCAR-8 ovarian; NCI-H522 lung; A549 NSCLC; BT-549 breast.
What all share (assay): NCI tumour cell line growth inhibition, 48 h

SMILES strings stand for the structures.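 48-hour exposure; five concentrations; linearly interpolated endpoints. The concentration for 50% growth inhibition is given as GI50. TGI denotes the concentration required for complete inhibition of growth.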

For `O=C(/C=C\c1ccc(O)c(O)c1)c1ccccc1O`, the GI50 is 17.7 µM with SF-295 CNS; 13.4 µM with PC-3 prostate; 18.2 µM in the experiment on TK-10 renal; 14.6 µM in the experiment with MCF7 breast; 2.2 µM in the experiment with UO-31 renal; 17.2 µM in the experiment on HS 578T breast. The GI50 is 14.7 µM in the experiment on OVCAR-8 ovarian, 0.214 µM in the experiment on NCI-H522 lung, 17.1 µM in the experiment with A549 NSCLC and 3.61 µM in the experiment on BT-549 breast. The TGI was 54.4 µM in the experiment with SF-295 CNS; 89.8 µM in the experiment with PC-3 prostate; > 100 µM in the experiment on TK-10 renal; > 100 µM with MCF7 breast; 18 µM in the experiment on UO-31 renal; 81.9 µM with HS 578T breast. The TGI was 56.8 µM in the experiment with OVCAR-8 ovarian, 0.809 µM in the experiment with NCI-H522 lung, > 100 µM in the experiment on A549 NSCLC and 18.8 µM in the experiment on BT-549 breast.

Turning to `COc1ccc(C2=NN(C(N)=S)C(c3ccc4c(c3)OCO4)C2)cc1` (stereo not given), the GI50 in the experiment with SF-295 CNS is 2.64 µM; in the experiment with PC-3 prostate, 4.33 µM; with TK-10 renal it was 2.47 µM; in the experiment on MCF7 breast, 3.23 µM; with UO-31 renal it was 1.91 µM; in the experiment with HS 578T breast, 2.82 µM. The GI50 was 3.29 µM in the experiment on OVCAR-8 ovarian, 2.4 µM in the experiment with NCI-H522 lung, 3.19 µM in the experiment on A549 NSCLC and 2.89 µM in the experiment on BT-549 breast. Also, the TGI in the experiment on SF-295 CNS was 11.9 µM; in the experiment with PC-3 prostate, > 100 µM; in the experiment on TK-10 renal, 9.54 µM; in the experiment on MCF7 breast, > 100 µM; in the experiment with UO-31 renal, 7.99 µM; in the experiment with HS 578T breast it was 7.09 µM. For the same compound, the TGI with OVCAR-8 ovarian was 22.9 µM; in the experiment with NCI-H522 lung, 16.8 µM; in the experiment on A549 NSCLC it was > 100 µM; with BT-549 breast, 20.5 µM.

With `O=C1NN2CC(c3ccccc3)=NN=C2c2ccccc21`, the GI50 in the experiment on SF-295 CNS was 32.8 µM; with PC-3 prostate, 12.6 µM; in the experiment with TK-10 renal, 31.5 µM; in the experiment with MCF7 breast it was 15.8 µM; with UO-31 renal it was 28 µM; with HS 578T breast it was 68 µM. Also, the GI50 in the experiment on OVCAR-8 ovarian is 29.1 µM; in the experiment on NCI-H522 lung, 34.7 µM; in the experiment on A549 NSCLC, 28.6 µM; in the experiment with BT-549 breast it was 24.5 µM. The TGI was > 100 µM with SF-295 CNS; 33.8 µM in the experiment on PC-3 prostate; 98.3 µM in the experiment with TK-10 renal; 37.2 µM with MCF7 breast; 66.6 µM in the experiment with UO-31 renal; > 100 µM in the experiment with HS 578T breast. The TGI amounted to 74 µM in the experiment on OVCAR-8 ovarian, 77.1 µM with NCI-H522 lung, 70.8 µM in the experiment on A549 NSCLC and 57 µM in the experiment with BT-549 breast.
